Measured values as given in patent US20260198499A1, “PLANT STOMATAL OPENING REGULATOR” (priority 2022, published 2026).
Read-outs that look alike come from different tables or passages of the source.

What was measured:
[1] = tested on: stomatal aperture of Commelina benghalensis leaf disks; experiment: Stomatal opening regulatory action measurement test 1 (IC50 of stomatal aperture, leaf disks); format: cell-based; details: read-out: IC50 (50% inhibitory concentration of stomatal aperture)
Protocol: (§1) Part of the stem of Commelina benghalensis was inserted into a planter filled with mixed soil of vermiculite and peat moss, and grown indoors with natural light (room temperature: 25±3° C.) for 2 to 4 weeks. The planter was placed in a dark room and subjected to dark treatment overnight. After the dark treatment, leaf disks with a diameter of 4 mm were cut from fully expanded leaves using a hole punch (Biospy Punch, Kai Medical).
Each test solution was dispensed into five wells of a 96-well plate at 50 μl/well, and the leaf disks were immersed therein, followed by incubation under light irradiation (50 μmol m^−2s^−1 blue light) for 3 hours. After incubation, stomatal closure was evaluated under observation images (600×) using a stereofluorescence microscope (Leica M205FA). The minor diameter of about 20 stomata (hereinafter referred to as “stomatal aperture”) was measured for each leaf disk.

[2] = tested on: stomatal opening of leaf disks; experiment: Stomatal opening regulatory action measurement test 2 (light- and fusicoccin-induced stomatal opening); format: cell-based, Commelina benghalensis; details: compound 1 100 μM, FIG. 1
Protocol: as §1
[…] After incubation, stomatal closure was evaluated under observation images (600×) using a stereofluorescence microscope (Leica M205FA). The minor diameter of about 20 stomata (hereinafter referred to as “stomatal aperture”) was measured for each leaf disk. Based on the measured values of stomatal aperture at each concentration for each test compound, the 50% inhibitory concentration (IC50) of stomatal aperture was calculated.
Compound 1 (BITC: benzyl isothiocyanate) (final concentration in the test solution: 100 μM) and abscisic acid (final concentration in the test solution: 20 µM) were used as test compounds. A test solution was also prepared by adding fusicoccin (final concentration: 10 μM) in addition to the test compound. […] The mean and standard deviation (SD) were calculated based on the measured values.

[3] = tested on: plasma membrane proton pump (H+-ATPase) phosphorylation in guard cells; experiment: Immunohistochemical measurement of blue light- and fusicoccin-induced phosphorylation of the plasma membrane proton pump in guard cells; format: cell-based, Arabidopsis thaliana; details: compound 1 100 μM, compound 4 20 µM, compound 5 20 μM, FIG. 2; for inhibitory effect on blue light-induced phosphorylation of the plasma membrane proton pump: Arabidopsis guard cells; for inhibitory effect on fusicoccin-induced phosphorylation of the plasma membrane proton pump: fusicoccin 10 μM
Protocol: Blue light- and fusicoccin-induced phosphorylation of the plasma membrane proton pump in guard cells from the epidermis of Arabidopsis thaliana was measured immunohistochemically as previously reported (Hayashi et al. (2011) Immunohistochemical detection of blue light-induced phosphorylation of the plasma membrane H^+-ATPase in stomatal guard cells. Plant Cell Physiol. 52:1238-1248). The test compounds used were compound 1 (BITC), compound 4 (m-Bis-BITC), and compound 5 (Tris-BITC). The concentration of compound 1 during action was 100 μM, the concentration of compound 4 during action was 20 µM, the concentration of compound 5 during action was 20 μM, and the concentration of fusicoccin during action was 10 μM.

[4] = tested on: ABA-responsive kinase substrate (AKS); experiment: Immunoblot analysis of phosphorylation of ABA-responsive kinase substrate (AKS) in guard cells; format: cell-based; details: compound 1 100 μM; Vicia faba guard cells; FIG. 3
Protocol: Abscisic acid (ABA)-induced phosphorylation of ABA-responsive kinase substrate (AKS) in guard cells from the epidermis of broad bean (Vicia faba) was measured by immunoblot analysis as previously reported (Takahashi et al. (2007) Protein Phosphorylation and Binding of a 14-3-3 Protein in Vicia Guard Cells in Response to ABA. Plant and Cell Physiology. 48:1182-1191). The test compounds used were compound 1 (BITC) and abscisic acid. The concentration of compound 1 during action was 100 μM, and the concentration of abscisic acid during action was 20 μM.

[5] = tested on: ABA-related responses in Arabidopsis thaliana; experiment: ABA-related responses (seed germination, ABA-responsive genes RAB18 and RD29B); format: in vivo
[6] = tested on: stomatal opening in intact leaves of chrysanthemums; experiment: Stomatal opening regulatory action measurement test 3 (intact chrysanthemum leaves); format: in vivo; details: for inhibitory effect on stomatal opening in intact leaves: chrysanthemum leaves immersed in test solution, white light 3 hours, FIGS. 4 and 5
Protocol: (§2) A bouquet of chrysanthemums (Chrysanthemum) was purchased and cultured in a water bottle at 24° C. with a photoperiod of 16 h white light (100 μmol m^−2s^−1)/8 h darkness for 2 days. After the dark period ended, the leaves were immersed in a test solution (0.033% Makupika (spreader, Isk Biosciences K. K.)) containing the test compound (compound 1 (BITC), compound 4 (m-Bis-BITC), or abscisic acid (ABA)) and incubated under white light (100 μmol m^−2s^−1) for 3 hours or incubated with a photoperiod of 16 h light/16 h darkness (light→dark→light) for 48 hours. After incubation, the stomatal aperture was measured in the same manner as in Test Example 1.

[7] = tested on: chrysanthemums (Chrysanthemum); experiment: Drought tolerance test 1 (dehydrated chrysanthemum bouquet); format: in vivo; details: 21° C., 90 minutes, relative humidity 35 to 40%, FIG. 6
Protocol: as §2
After incubation for 3 hours in Test Example 5, the bouquet was dehydrated and incubated at 21° C. for 90 minutes under 10 μmol m^−2s^−1 white light at a relative humidity of 35 to 40%.

[8] = tested on: Chinese cabbage (Brassica rapa); experiment: Drought tolerance test 2 (sprayed Chinese cabbage, water depleted); format: in vivo; details: Chinese cabbage sprayed with 50 μM, 24 hours, 25° C., relative humidity 40 to 50%, FIG. 7
Protocol: A test solution (0.033% Makupika (spreader, Isk Biosciences K.K.)) containing compound 4 (m-Bis-BITC) was sprayed onto 4- to 5-week-old Chinese cabbage (Brassica rapa) growing in 110 ml of soil. The concentration of compound 4 in the test solution was 50 μM. Then, the water was depleted, and the plants were cultured for 24 hours in a greenhouse at 25° C. at a relative humidity of 40 to 50% on a sunny day.

[9] = Commelina benghalensis leaf disks, 3 hours under 50 μmol m−2s−1 blue light

SMILES: S=C=NCc1ccccc1 [Compound 1, benzyl isothiocyanate]
- IC50 [1, 9]: 29.1 µM
- inhibitory effect on stomatal opening compared with abscisic acid ([2]; abscisic acid 20 µM, 3 hours red and blue light): more potent inhibitory effect on stomatal opening than abscisic acid
- inhibitory effect on stomatal opening induced by fusicoccin ([2]; fusicoccin 10 μM, 3 hours): exhibited an inhibitory effect on stomatal opening induced by fusicoccin
- inhibitory effect on blue light-induced phosphorylation of the plasma membrane proton pump [3]: inhibitory effects
- inhibitory effect on fusicoccin-induced phosphorylation of the plasma membrane proton pump [3]: inhibitory effects
- induction of phosphorylation of the ABA-responsive kinase substrate [4]: did not induce phosphorylation
- effect on ABA-related responses, including inhibition of seed germination and induction of ABA-responsive genes (RAB18 and RD29B) [5]: no effect
- inhibitory effect on stomatal opening in intact leaves [6]: inhibitory effect on stomatal opening even in intact leaves
- drought tolerance and wilting [7]: could improve drought tolerance and suppress wilting

SMILES: S=C=NCc1cccs1 [Compound 2]
- IC50 ([1]; Commelina benghalensis, 3 h): 20.6 µM

SMILES: S=C=NCc1cccc(CN=C=S)c1 [Compound 4]
- IC50 [1, 9]: 1.7 µM
- inhibitory effect on blue light-induced phosphorylation of the plasma membrane proton pump [3]: inhibitory effects
- inhibitory effect on fusicoccin-induced phosphorylation of the plasma membrane proton pump [3]: inhibitory effects
- inhibitory effect on stomatal opening in intact leaves [6]: inhibitory effect on stomatal opening even in intact leaves
- persistence of the stomatal opening inhibitory effect ([6]; chrysanthemum leaves, 48 hours incubation, m-Bis-BITC 50 µM, FIG. 5): excellent in the persistence
- drought tolerance and wilting [7]: could improve drought tolerance and suppress wilting
- drought tolerance and wilting [8]: could improve drought tolerance and suppress wilting over a long period of time

SMILES: S=C=NCc1cc(CN=C=S)cc(CN=C=S)c1 [Compound 5, 1,3,5-tris(isothiocyanatomethyl)benzene]
- IC50 ([1]; Commelina benghalensis, 3 h): 0.44 µM
- inhibitory effect on blue light-induced phosphorylation of the plasma membrane proton pump [3]: inhibitory effects
- inhibitory effect on fusicoccin-induced phosphorylation of the plasma membrane proton pump [3]: inhibitory effects

SMILES: S=C=NC[C@H]1CC[C@H](CN=C=S)CC1 [Compound 27, trans-1,4-bis(isothiocyanatomethyl)cyclohexane]
- IC50 ([1]; Commelina benghalensis, 3 h): 11.4 µM
